Patent US20240174674A1, “NITROGEN-CONTAINING POLYCYCLIC FUSED RING COMPOUND, PHARMACEUTICAL COMPOSITION THEREOF, PREPARATION METHOD THEREFOR, AND USE THEREOF” (APPLIED PHARMACEUTICAL SCIENCE, INC., priority 2021, published 2024)

Biological target: RET G810R (Homo sapiens (Human), UniProt P07949, G810R)
Experiment: HTRF KinEASE-TK kinase activity test, RET G810R
Settings: for IC50: read-out: RET G810R IC50, HTRF kinase assay; for inhibitory activity against RET G810R relative to that of selpercatinib (LOXO-292): fold versus selpercatinib (LOXO-292)

Chain of RET G810R (P07949 29-1114 G810R): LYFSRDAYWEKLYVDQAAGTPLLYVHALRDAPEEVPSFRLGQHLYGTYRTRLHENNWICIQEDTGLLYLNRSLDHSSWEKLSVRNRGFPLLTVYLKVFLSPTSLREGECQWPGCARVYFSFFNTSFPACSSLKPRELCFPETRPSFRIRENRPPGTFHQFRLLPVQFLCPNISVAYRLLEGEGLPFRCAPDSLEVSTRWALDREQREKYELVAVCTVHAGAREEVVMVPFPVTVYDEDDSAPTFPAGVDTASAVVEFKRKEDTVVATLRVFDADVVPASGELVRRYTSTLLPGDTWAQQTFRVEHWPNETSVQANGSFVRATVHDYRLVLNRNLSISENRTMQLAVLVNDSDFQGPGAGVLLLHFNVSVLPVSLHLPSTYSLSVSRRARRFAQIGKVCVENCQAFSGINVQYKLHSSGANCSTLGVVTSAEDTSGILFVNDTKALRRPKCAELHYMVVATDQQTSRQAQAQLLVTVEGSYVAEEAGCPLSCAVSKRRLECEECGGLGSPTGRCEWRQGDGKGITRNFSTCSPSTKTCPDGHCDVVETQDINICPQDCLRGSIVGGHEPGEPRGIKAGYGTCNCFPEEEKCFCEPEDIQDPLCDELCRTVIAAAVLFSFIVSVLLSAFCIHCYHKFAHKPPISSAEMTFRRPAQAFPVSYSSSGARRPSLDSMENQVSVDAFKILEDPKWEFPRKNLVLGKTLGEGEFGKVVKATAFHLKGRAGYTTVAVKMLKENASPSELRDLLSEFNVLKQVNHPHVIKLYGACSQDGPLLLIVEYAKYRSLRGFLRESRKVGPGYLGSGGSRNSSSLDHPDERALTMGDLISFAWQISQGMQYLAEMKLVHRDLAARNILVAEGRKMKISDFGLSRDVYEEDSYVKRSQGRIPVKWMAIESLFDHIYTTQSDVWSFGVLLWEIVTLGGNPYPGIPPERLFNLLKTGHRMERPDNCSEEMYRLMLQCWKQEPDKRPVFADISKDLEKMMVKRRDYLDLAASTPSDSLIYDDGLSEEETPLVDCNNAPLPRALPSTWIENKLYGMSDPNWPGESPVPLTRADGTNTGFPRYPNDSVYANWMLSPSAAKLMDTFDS

IC50 [nM] | inhibitory activity against RET G810R relative to that of selpercatinib (LOXO-292) [times] | SMILES
15.3 | – | CCOc1cc(-c2ccc(N3CC4(CCN(C(=O)c5c(F)cccc5Cl)C4)C3)nc2)c2c3cn[nH]c3nn2c1 [Compound 189]
6.4 | – | CCOc1cc(-c2ccc(N3CCC(Oc4ccc(C)nn4)CC3)nc2)c2c3cn[nH]c3nn2c1 [Compound 104, 6-ethoxy-4-(6-(4-((6-methylpyridazin-3-yl)oxy)piperidin-1-yl)pyridin-3-yl)-1H-pyrazolo[3′,4′:3,4]pyrazolo[1,5-α]pyridine]
1.8 | ≥ 10 | CCOc1cc(-c2ccc(N3CC[C@H](NC(=O)c4cc(F)ccc4F)[C@H](O)C3)nc2)c2c3cn[nH]c3nn2c1 [Compound 273, N-((3R,4S)-1-(5-(6-ethoxy-1H-pyrazolo[3′,4′:3,4]pyrazolo[1,5-α]pyridin-4-yl)pyridin-2-yl)-3-hydroxypiperidin-4-yl)-2,5-difluorobenzamide]
20.8 | – | CCOc1cc(-c2ccc(N3CCN(Cc4ccc(OC)nc4)C(CN(C)C)C3)nc2)c2c3cn[nH]c3nn2c1 (stereo not drawn) [Compound 245, 1-(4-(5-(6-ethoxy-1H-pyrazolo[3′,4′:3,4]pyrazolo[1,5-α]pyridin-4-yl)pyridin-2-yl)-1-((6-methoxypyridin-3-yl)methylene)piperazin-2-yl)-N,N-dimethylmethanamine]
6.5 | – | CCOc1cc(-c2ccc(N3CCC(C)(NC(=O)c4cc(F)ccc4C)CC3)nc2)c2c3cn[nH]c3nn2c1 [Compound 1, N-(1-(5-(6-ethoxy-1H-pyrazolo[3′,4′:3,4]pyrazolo[1,5-α]pyridin-4-yl)pyridin-2-yl)-4-methylpiperidin-4-yl)-5-fluoro-2-methylbenzamide]
11.1 | – | CCOc1cc(-c2ccc(N3CCC(Oc4ccccn4)CC3)nc2)c2c3cn[nH]c3nn2c1 [Compound 103, 6-ethoxy-4-(6-(4-(pyridin-2-yloxy)piperidin-1-yl)pyridin-3-yl)-1H-pyrazolo[3′,4′:3,4]pyrazolo[1,5-α]pyridine]
2.8 | ≥ 10 | O=C(N[C@H]1CCN(c2ccc(-c3cc(OCC(F)F)cn4nc5[nH]ncc5c34)cn2)C[C@H]1O)c1c(F)cccc1F [Compound 268, N-((3R,4S)-1-(5-(6-(2,2-difluoroethoxy)-1H-pyrazolo[3′,4′:3,4]pyrazolo[1,5-α]pyridin-4-yl)pyridin-2-yl)-3-hydroxypiperidin-4-yl)-2,6-difluorobenzamide]
13.5 | – | CCOc1cc(-c2ccc(N3CCN(Cc4ccc(OC)nc4)C(CO)C3)nc2)c2c3cn[nH]c3nn2c1 (stereo not drawn) [Compound 249, (4-(5-(6-ethoxy-1H-pyrazolo[3′,4′:3,4]pyrazolo[1,5-α]pyridin-4-yl)pyridin-2-yl)-1-((6-methoxypyridin-3-yl)methylene)piperazin-2-yl)methanol]
4.9 | – | CCOc1cc(-c2ccc(N3CCC(S(=O)(=O)Cc4ccccc4)CC3)nc2)c2c3cn[nH]c3nn2c1 [Compound 34]
1.5 | ≥ 10 | CCOc1cc(-c2ccc(N3CCC(CN(C)C)(NC(=O)c4ncccc4Cl)CC3)nc2)c2c3cn[nH]c3nn2c1 [Compound 15, 3-chloro-N-(4-((2-dimethylamino)methyl)-1-(5-(6-ethoxy-1H-pyrazolo[3′,4′:3,4]pyrazolo[1,5-α]pyridin-4-yl)pyridin-2-yl)piperidin-4-yl)picolinamide]
3.6 | ≥ 10 | CCOc1cc(-c2ccc(N3CCC(O)(CNS(=O)(=O)c4ccccc4)CC3)nc2)c2c3cn[nH]c3nn2c1 [Compound 102, N-((1-(5-(6-ethoxy-1H-pyrazolo[3′,4′:3,4]pyrazolo[1,5-α]pyridin-4-yl)pyridin-2-yl)-4-hydroxypiperidin-4-yl)methylene)benzenesulfonamide]
1.5 | ≥ 10 | CCOc1cc(-c2ccc(N3CC[C@H](NC(=O)C4(C(F)(F)F)CCC4)[C@H](O)C3)nc2)c2c3cn[nH]c3nn2c1 [Compound 281, N-((3R,4S)-1-(5-(6-ethoxy-1H-pyrazolo[3′,4′:3,4]pyrazolo[1,5-α]pyridin-4-yl)pyridin-2-yl)-3-hydroxypiperidin-4-yl)-1-(trifluoromethyl)cyclobutane-1-carboxamide]
27.3 | – | CCOc1cc(-c2ccc(N3C[C@@H]4[C@H](C3)[C@H]4NC(=O)c3c(F)cccc3Cl)nc2)c2c3cn[nH]c3nn2c1 [Compound 170, 2-chloro-N-((1R,5S,6S)-3-(5-(6-ethoxy-1H-pyrazolo[3′,4′:3,4]pyrazolo[1,5-α]pyridin-4-yl)pyridin-2-yl)-3-azabicyclo[3.1.0]hexan-6-yl)-6-fluorobenzamide]
5.1 | – | CCOc1cc(-c2ccc(N3CCC(CN(C)C)(C(=O)NCC(C)C)CC3)nc2)c2c3cn[nH]c3nn2c1 [Compound 35, 4-((dimethylamino)methyl)-1-(5-(6-ethoxy-1H-pyrazolo[3′,4′:3,4]pyrazolo[1,5-α]pyridin-4-yl)pyridin-2-yl)-N-isobutylpiperidine-4-carboxamide]
8.8 | – | CCOc1cc(-c2ccc(N3CCC(CN4CCOCC4)(NC(=O)CC(C)C)CC3)nc2)c2c3cn[nH]c3nn2c1 [Compound 29]
16.9 | – | CCOc1cc(-c2ccc(N3CC4(CCCN4Cc4ccc(OC)nc4)C3)nc2)c2c3cn[nH]c3nn2c1 [Compound 188, 6-ethoxy-4-(6-(5-((6-methoxypyridin-3-yl)methyl)-2,5-diazaspiro[3.4]octan-2-yl)pyridin-3-yl)-1 H-pyrazolo[3′,4′:3,4]pyrazolo[1,5-α]pyridine]
49 | – | CCOc1cc(-c2ccc(N3CCC4(CCCN4Cc4ccc(OC)nc4)CC3)nc2)c2c3cn[nH]c3nn2c1 [Compound 207, 6-ethoxy-4-(6-(1-((6-methoxypyridin-3-yl)methylene)-1,8-diazaspiro[4.5]octan-8-yl)pyridin-3-yl) -1H-pyrazolo[3′,4′:3,4]pyrazolo[1,5-α]pyridine]
9.9 | – | CCOc1cc([C@H]2CC[C@](OC)(C(=O)N[C@@H](C)c3ccc(-n4cc(F)cn4)nc3)CC2)c2c3cn[nH]c3nn2c1 [Compound 258, (1S,4R)-4-(6-ethoxy-1H-pyrazolo[3′,4′:3,4]pyrazolo[1,5-α]pyridin-4-yl)-N—((S)-1-(6-(4-fluoro-1H-pyrazol-1-yl)pyridin-3-yl)ethyl)-1-methoxycyclohexane-1-carboxamide]
1.8 | ≥ 10 | O=C(N[C@H]1CCN(c2ccc(-c3cc(OCC(F)F)cn4nc5[nH]ncc5c34)cn2)C[C@H]1O)c1c(F)cccc1Cl [Compound 292, N-((3R,4S)-1-(5-(6-(2,2-difluoroethoxy)-1H-pyrazolo[3′,4′:3,4]pyrazolo[1,5-α]pyridin-4-yl)pyridin-2-yl)piperidin-3-hydroxypiperidin-4-yl)-2-chloro-6-fluorobenzamide]
16.1 | – | CCOc1cc(-c2ccc(N3CC4CCC3CN4C(=O)c3c(F)cccc3Cl)nc2)c2c3cn[nH]c3nn2c1 (stereo not shown) [Compound 159]

SMILES | IC50 [nM] | inhibitory activity against RET G810R relative to that of selpercatinib (LOXO-292) [times]
CCOc1cc(-c2ccc(N3C[C@@H]4C5CCC([C@@H]4C3)N5C(=O)c3c(F)cccc3Cl)nc2)c2c3cn[nH]c3nn2c1 [Compound 180, (2-chloro-6-fluorophenyl)((3aR,7aS)-2-(5-(6-ethoxy-1H-pyrazolo[3′,4′:3,4]pyrazolo[1,5-α]pyridin-4-yl)pyridin-2-yl)octahydro-1H-4,7-epiminoisoindol-8-yl)methanone] | 9.7 | –
COC(=O)COc1cc(-c2ccc(N3CC4CC(C3)N4Cc3ccc(OC)nc3)nc2)c2c3cn[nH]c3nn2c1 [Compound 228, Methyl 2-((4-(6-(6-((6-methoxypyridin-3-yl)methylene)-3,6-diazabicyclo[3.1.1]heptan-3-yl)pyridin-3-yl)-1H-pyrazolo[3′,4′:3,4]pyrazolo[1,5-α]pyridin-6-yl)oxy)acetate] | 5.7 | –
C#CCOc1cc(-c2ccc(N3CC4CC(C3)N4Cc3ccc(OC)nc3)nc2)c2c3cn[nH]c3nn2c1 [Compound 227, 4-(6-(6-((6-methoxypyridin-3-yl)methylene)-3,6-diazabicyclo[3.1.1]heptan-3-yl)pyridin-3-yl)-6-(prop-2-yn-1-yloxy)-1H-pyrazolo[3′,4′:3,4]pyrazolo[1,5-α]pyridine] | 4.01 | –
COc1ccc(CN2C3CC2CN(c2ccc(-c4cc(C#N)cn5nc6[nH]ncc6c45)cn2)C3)cn1 [Compound 243] | 89 | –
CCOc1cc(-c2ccc(N3CC4CCC(C3)N4Cc3ccc(OC)nc3)nc2)c2c3cn[nH]c3nn2c1 [Compound 156, 6-ethoxy-4-(6-((1R,5S)-8-((6-methoxypyridin-3-yl)methyl)-3,8-diazabicyclo[3.2.1]octan-3-yl)pyridin-3-yl)-1H-pyrazolo[3′,4′:3,4]pyrazolo[1,5-α]pyrazole] | 11.4 | –
CCOc1cc(-c2ccc(N3CC4COCC(C3)N4C(=O)c3c(F)cccc3Cl)nc2)c2c3cn[nH]c3nn2c1 [Compound 169, N-(7-(5-(6-ethoxy-1H-pyrazolo[3′,4′:3,4]pyrazolo[1,5-α]pyridin-4-yl)pyridin-2-yl)-3-oxa-7,9-azabicyclo[3.3.1]nonan-9-yl)-2-chloro-6-fluorobenzamide] | 4.8 | –
CCOc1cc(-c2ccc(N3C4CCC3CN(Cc3ccc(OC)nc3)C4)nc2)c2c3cn[nH]c3nn2c1 [Compound 158, 6-ethoxy-4-(6-((1R,5S)-3-((6-methoxypyridin-3-yl)methyl)-3,8-diazabicyclo[3.2.1]octan-3-yl)pyridin-8-yl)-1H-pyrazolo[3′,4′:3,4]pyrazolo[1,5-α]pyrazole] | 18.7 | –
C=CC(=O)Oc1cc(-c2ccc(N3CC4CC(C3)N4Cc3ccc(OC)nc3)nc2)c2c3cn[nH]c3nn2c1 [Compound 242, 4-(6-(6-((6-methoxypyridin-3-yl)methyl)-3,6-diazabicyclo[3.1.1]heptan-3-yl)pyridin-3-yl)-1H-py razolo[3′,4′:3,4]pyrazolo[1,5-α]pyridin-6-yl acrylate] | 4.7 | –
